Measured values as given in ChEMBL document CHEMBL1201862, “PubChem BioAssay data set” (2004).
Activity calls are given as the source filed them.

Legend:
Bcl-2-like protein 10 = target: T1, Bcl-2-like protein 10 (Homo sapiens, UniProt Q9HD36); experiment: Concentration-response of Bcl-B inhibitors by biochemical FP with TR3 (AID 1243); assay type: functional
T1 sequence (Q9HD36 whole entry): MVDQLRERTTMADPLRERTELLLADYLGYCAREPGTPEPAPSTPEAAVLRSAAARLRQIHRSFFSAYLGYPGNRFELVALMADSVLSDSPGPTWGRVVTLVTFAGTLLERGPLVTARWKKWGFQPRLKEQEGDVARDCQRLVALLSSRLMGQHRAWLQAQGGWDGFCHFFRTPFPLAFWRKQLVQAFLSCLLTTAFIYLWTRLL

[1] = target: Induced myeloid leukemia cell differentiation protein Mcl-1 (Homo sapiens, UniProt Q07820); assay type: functional
HeLa = experiment: Cytotoxicity counterscreen assay for transcriptional activators of heat shock protein 70 (Hsp70). [Related pubchem assays: 1203, 1252 ]; assay type: functional; conditions: Homo sapiens;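 also: cells exposed to compound for 16 hours before readout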
[2] = target: Sphingosine 1-phosphate receptor 1 (Homo sapiens, UniProt P21453); assay type: functional;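 also: Tango beta-arrestin reporter U2OS cells stimulated with S1P near its EC80; inhibitor potency meaning antagonism of receptor activation by the natural agonist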
[3] = target: T2, Sphingosine 1-phosphate receptor 4 (Homo sapiens, UniProt O95977); experiment: Fluorescence dose response cell-based high throughput screening assay for antagonists of the Sphingosine 1-Phosphate Receptor 4 (S1P4). [Related pubchem assays: 1524 (Confirmation in triplicates.), 1510 (Primary screen.)]; assay type: functional
T2 sequence (O95977 whole entry): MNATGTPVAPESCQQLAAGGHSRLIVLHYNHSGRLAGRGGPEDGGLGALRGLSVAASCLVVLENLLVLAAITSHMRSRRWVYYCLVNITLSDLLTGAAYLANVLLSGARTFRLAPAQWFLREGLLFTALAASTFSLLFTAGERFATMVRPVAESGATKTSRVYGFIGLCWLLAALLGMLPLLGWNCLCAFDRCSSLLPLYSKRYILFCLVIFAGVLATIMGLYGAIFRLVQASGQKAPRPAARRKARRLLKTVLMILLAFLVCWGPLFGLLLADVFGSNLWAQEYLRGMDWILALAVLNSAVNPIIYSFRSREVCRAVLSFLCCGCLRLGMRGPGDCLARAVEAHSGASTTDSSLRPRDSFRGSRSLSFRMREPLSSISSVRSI

[4] = target: Photoreceptor-specific nuclear receptor (Homo sapiens, UniProt Q9Y5X4); assay type: functional, cell-based;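 also: CHO-S cells with Gal4-NCOR and VP16-NR2E3 two-hybrid luciferase reporter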
[5] = reduced cellular PGC1a acetyl-lysine signal – cell-based, cherry-picked samples, dose response (AID 720514); assay type: functional;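 also: potency may reflect raised or lowered acetylation signal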
[6] = target: T2, Sphingosine 1-phosphate receptor 4; experiment: Late stage fluorescence dose response cell-based screening assay for antagonists of the Sphingosine 1-Phosphate Receptor 4 (S1P4). [Related pubchem assays: 1524 (Confirmation screen (S1P4 antagonists).), 1510 (Primary screen (S1P4 antagonists).), 1853 (Summary AID (S1P4 antagonists).), 1692 (Dose response screen (S1P4 antagonists).)]; assay type: functional
[7] = target: Sphingosine 1-phosphate receptor 2 (Homo sapiens, UniProt O95136); experiment: Dose Response Cell Based Assay for Antagonists of the S1P2 Receptor. [Related pubchem assays: 856, 736 ]; assay type: functional
[8] = target: T3, Replicative DNA helicase DnaB (Mycobacterium tuberculosis, UniProt P9WMR3); experiment: DnaB intein splicing inhibitors, dose response, biochemical, cell-free fluorescence (AID 449749); assay type: functional
T3 sequence (P9WMR3 whole entry): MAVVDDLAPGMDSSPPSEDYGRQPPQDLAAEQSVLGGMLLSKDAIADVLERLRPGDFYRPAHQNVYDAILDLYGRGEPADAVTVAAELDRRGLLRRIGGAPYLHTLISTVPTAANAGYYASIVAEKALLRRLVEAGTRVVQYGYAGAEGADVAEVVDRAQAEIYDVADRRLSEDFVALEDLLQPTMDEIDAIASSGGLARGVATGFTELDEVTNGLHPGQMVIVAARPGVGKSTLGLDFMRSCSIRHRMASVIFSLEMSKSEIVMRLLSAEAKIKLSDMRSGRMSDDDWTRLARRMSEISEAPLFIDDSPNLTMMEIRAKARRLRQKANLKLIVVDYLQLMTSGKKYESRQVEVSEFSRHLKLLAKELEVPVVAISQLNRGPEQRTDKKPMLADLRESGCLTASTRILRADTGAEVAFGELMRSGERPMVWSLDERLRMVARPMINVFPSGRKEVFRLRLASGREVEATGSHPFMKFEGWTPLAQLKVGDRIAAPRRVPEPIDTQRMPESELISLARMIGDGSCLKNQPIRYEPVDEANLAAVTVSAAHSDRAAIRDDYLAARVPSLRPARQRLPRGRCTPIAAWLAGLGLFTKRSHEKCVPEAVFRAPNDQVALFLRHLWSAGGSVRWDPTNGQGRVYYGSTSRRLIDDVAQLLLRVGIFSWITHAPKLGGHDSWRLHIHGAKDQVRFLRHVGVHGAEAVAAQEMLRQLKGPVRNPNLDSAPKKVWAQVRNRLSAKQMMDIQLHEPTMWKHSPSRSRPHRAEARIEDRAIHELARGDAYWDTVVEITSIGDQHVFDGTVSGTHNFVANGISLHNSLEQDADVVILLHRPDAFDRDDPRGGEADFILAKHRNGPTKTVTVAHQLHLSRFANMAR

Protein RecA = target: T4, Protein RecA (Mycobacterium tuberculosis, UniProt P9WHJ3); experiment: Fluorescence Cell-Free Homogeneous Dose Retest to Identify Inhibitors of RecA-Intein Splicing Activity. [Related pubchem assays (depositor defined):AID2097, AID2223, AID489010, AID492950]; assay type: functional
T4 sequence (P9WHJ3 whole entry): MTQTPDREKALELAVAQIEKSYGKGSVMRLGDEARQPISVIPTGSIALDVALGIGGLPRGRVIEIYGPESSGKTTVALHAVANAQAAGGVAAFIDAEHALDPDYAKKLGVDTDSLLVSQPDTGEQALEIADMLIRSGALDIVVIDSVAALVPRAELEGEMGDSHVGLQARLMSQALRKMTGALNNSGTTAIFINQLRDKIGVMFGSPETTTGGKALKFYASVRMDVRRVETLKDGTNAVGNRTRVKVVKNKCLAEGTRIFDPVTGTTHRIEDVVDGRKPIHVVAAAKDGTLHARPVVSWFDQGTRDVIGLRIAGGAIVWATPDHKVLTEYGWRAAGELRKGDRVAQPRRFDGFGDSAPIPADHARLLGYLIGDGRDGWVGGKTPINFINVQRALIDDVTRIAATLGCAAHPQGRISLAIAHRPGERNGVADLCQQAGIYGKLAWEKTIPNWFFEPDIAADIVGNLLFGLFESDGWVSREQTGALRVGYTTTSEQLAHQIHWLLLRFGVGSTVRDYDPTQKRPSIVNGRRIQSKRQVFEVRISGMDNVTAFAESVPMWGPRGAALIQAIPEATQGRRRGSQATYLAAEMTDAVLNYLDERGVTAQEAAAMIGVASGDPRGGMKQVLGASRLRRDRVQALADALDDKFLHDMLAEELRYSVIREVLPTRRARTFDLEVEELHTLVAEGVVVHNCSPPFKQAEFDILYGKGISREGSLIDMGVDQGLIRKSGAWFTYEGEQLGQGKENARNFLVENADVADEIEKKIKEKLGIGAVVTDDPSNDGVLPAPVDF

Sequence of Induced myeloid leukemia cell differentiation protein Mcl-1 (Q07820 whole entry): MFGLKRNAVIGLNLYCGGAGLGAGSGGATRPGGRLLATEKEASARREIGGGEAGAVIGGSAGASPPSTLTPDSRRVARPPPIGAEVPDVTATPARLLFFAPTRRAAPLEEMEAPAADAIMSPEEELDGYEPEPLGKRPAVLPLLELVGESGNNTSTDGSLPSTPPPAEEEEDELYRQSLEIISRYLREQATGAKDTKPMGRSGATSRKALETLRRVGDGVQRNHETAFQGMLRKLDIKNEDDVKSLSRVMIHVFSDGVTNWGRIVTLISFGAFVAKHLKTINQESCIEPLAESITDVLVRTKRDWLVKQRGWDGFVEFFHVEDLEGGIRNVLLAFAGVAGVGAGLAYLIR
Sequence of Sphingosine 1-phosphate receptor 2 (O95136 whole entry): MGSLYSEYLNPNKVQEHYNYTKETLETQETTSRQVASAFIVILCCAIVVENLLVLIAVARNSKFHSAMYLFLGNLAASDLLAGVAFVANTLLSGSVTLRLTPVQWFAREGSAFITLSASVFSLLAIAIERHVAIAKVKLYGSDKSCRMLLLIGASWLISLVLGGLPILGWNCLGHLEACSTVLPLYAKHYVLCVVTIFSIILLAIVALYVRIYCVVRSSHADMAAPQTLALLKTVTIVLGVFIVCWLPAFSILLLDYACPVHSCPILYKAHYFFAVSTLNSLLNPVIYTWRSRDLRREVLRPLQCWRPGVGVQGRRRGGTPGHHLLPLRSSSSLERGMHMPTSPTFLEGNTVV
Sequence of Sphingosine 1-phosphate receptor 1 (P21453 whole entry): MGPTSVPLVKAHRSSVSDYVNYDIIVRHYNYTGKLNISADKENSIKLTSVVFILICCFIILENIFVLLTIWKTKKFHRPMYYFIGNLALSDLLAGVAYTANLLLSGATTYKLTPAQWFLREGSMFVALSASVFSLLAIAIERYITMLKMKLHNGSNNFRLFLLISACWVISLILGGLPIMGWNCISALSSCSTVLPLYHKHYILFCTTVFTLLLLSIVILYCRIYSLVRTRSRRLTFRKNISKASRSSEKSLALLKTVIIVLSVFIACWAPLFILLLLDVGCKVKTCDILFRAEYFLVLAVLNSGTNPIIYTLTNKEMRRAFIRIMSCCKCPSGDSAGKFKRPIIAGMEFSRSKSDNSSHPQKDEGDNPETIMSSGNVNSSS
Sequence of Photoreceptor-specific nuclear receptor (Q9Y5X4 whole entry, the tested form may be a part): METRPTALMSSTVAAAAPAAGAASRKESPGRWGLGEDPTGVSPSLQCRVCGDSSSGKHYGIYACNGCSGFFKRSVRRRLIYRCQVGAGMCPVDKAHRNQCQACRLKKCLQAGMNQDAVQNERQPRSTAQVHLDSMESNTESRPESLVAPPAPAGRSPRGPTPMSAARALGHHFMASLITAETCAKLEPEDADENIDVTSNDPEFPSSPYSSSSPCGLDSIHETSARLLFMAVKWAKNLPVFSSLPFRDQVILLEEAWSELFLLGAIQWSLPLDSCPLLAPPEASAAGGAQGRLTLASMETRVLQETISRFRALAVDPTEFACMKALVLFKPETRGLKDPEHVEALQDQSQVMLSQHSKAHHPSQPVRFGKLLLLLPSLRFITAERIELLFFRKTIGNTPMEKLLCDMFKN

For COC(=O)C1=C(C)N(C)C(=O)NC1c1cc2c(cc1[N+](=O)[O-])OCO2 (stereo unspecified), the EC50 (Bcl-2-like protein 10) was 17.4 µM (active).

In the case of COC(=O)Nc1ccc(S(=O)(=O)NCc2ccccn2)cc1, the IC50 [1] is reported as 6.18 µM (not active) and the CC50 (HeLa) is reported as > 99 µM (not active).

For COc1ccc(NC(=O)/C(Cl)=C(/Cl)S(=O)(=O)Cc2ccccc2)cn1, the IC50 [2] was 8.15 µM (active), the IC50 [3] was 0.829 µM (active) and the IC50 [4] was 1.15 µM (active). For the same compound, the AC50 [5] was 5.17 µM (active), the IC50 [6] was 5.28 µM (not active) and the IC50 [7] was 1.76 µM (active). The AC50 [8] was 2.44 µM (active) and the EC50 (Protein RecA) was 2.79 µM (active).
